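All cell lines were grown in 96-well plates and treated with compound for 48 hours. GI50 is the concentration that inhibits growth by half. The concentration for full growth arrest is given as TGI.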 *1 amine or outer side, *2 acyl side, *3 side chain or, on linkers, in order; H or OH if unused. Where a SMILES comes first, the peptide text is derived from it. Bridges are numbered along the chain shown (N, C = ends). [ ]: non-standard residue; d: D form. The star is where a group is joined. ξ: configuration not given here. Phe(3,5-F2) = N[C@@H](Cc1cc(F)cc(F)c1)C(=O)O; ξThr(3S) = C[C@H](O[*:3])C(N[*:1])C(=O)[*:2]; X25 = C[C@H]1OCCN([*:1])[C@@H]1C(=O)[*:2]; Pro(4R-Me) = C[C@H]1CN[C@H](C(=O)O)C1; X24 = O=S(=O)(F)Oc1ccc(N*)cc1; CO = O=C([*:1])[*:2]
Tests used:
Test in all cases: DTP human tumour cell line panel, 48 h
COLO 205 colon = test system: COLO 205 colon
SN12C renal = test system: SN12C renal
OVCAR-4 ovarian = test system: OVCAR-4 ovarian
ACHN renal = test system: ACHN renal
MOLT-4 leukemia = test system: MOLT-4 leukemia
HOP-62 NSCLC = test system: HOP-62 NSCLC
NCI/ADR-RES ovarian = test system: NCI/ADR-RES ovarian
TK-10 renal = test system: TK-10 renal
UO-31 renal = test system: UO-31 renal
RXF 393 renal = test system: RXF 393 renal
SF-295 CNS = test system: SF-295 CNS
MDA-MB-231 breast = test system: MDA-MB-231 breast
SF-539 CNS = test system: SF-539 CNS
CCRF-CEM leukemia = test system: CCRF-CEM leukemia
LOX IMVI melanoma = test system: LOX IMVI melanoma
A549 NSCLC = test system: A549 NSCLC
786-0 renal = test system: 786-0 renal
SF-268 CNS = test system: SF-268 CNS
MALME-3M melanoma = test system: MALME-3M melanoma
NCI-H226 lung = test system: NCI-H226 lung
SK-MEL-5 melanoma = test system: SK-MEL-5 melanoma
HL-60(TB) leukemia = test system: HL-60(TB) leukemia
PC-3 prostate = test system: PC-3 prostate
SK-OV-3 ovarian = test system: SK-OV-3 ovarian
SNB-19 CNS = test system: SNB-19 CNS
U251 CNS = test system: U251 CNS
SW-620 colon = test system: SW-620 colon
UACC-257 melanoma = test system: UACC-257 melanoma
OVCAR-3 ovarian = test system: OVCAR-3 ovarian
HCT-15 colon = test system: HCT-15 colon
KM12 colon = test system: KM12 colon
CAKI-1 renal = test system: CAKI-1 renal
M14 melanoma = test system: M14 melanoma
A498 renal = test system: A498 renal
SK-MEL-2 melanoma = test system: SK-MEL-2 melanoma
SR leukemia = test system: SR leukemia
RPMI-8226 leukemia = test system: RPMI-8226 leukemia
HCT-116 colon = test system: HCT-116 colon
OVCAR-5 ovarian = test system: OVCAR-5 ovarian
HS 578T breast = test system: HS 578T breast
DU-145 prostate = test system: DU-145 prostate
T-47D breast = test system: T-47D breast
BT-549 breast = test system: BT-549 breast
SK-MEL-28 melanoma = test system: SK-MEL-28 melanoma
HOP-92 NSCLC = test system: HOP-92 NSCLC
UACC-62 melanoma = test system: UACC-62 melanoma
IGROV1 ovarian = test system: IGROV1 ovarian
EKVX NSCLC = test system: EKVX NSCLC
MCF7 breast = test system: MCF7 breast
SNB-75 CNS = test system: SNB-75 CNS
MDA-MB-435 = test system: MDA-MB-435
NCI-H522 lung = test system: NCI-H522 lung
NCI-H460 lung = test system: NCI-H460 lung
K-562 leukemia = test system: K-562 leukemia
HCC-2998 colon = test system: HCC-2998 colon
HT29 colon = test system: HT29 colon
OVCAR-8 ovarian = test system: OVCAR-8 ovarian

## C[C@@H]1C[C@H]2C(=O)O[C@@H](C)C(NC(=O)[C@H](Cc3cc(F)cc(F)c3)NC(=O)Nc3ccc(OS(=O)(=O)F)cc3)C(=O)N3CCC[C@H]3C(=O)N3CCO[C@H](C)[C@H]3C(=O)N[C@@H](CO)C(=O)N2C1 (stereo partly drawn) ({X24-CO}-[Phe(3,5-F2)][ξThr(3S)]P[X25]S[Pro(4R-Me)]; ester 2-C)
COLO 205 colon
  GI50: 0.683 µM
  TGI: 3.17 µM
SN12C renal
  GI50: 1.36 µM
  TGI: > 100 µM
OVCAR-4 ovarian
  GI50: 2.38 µM
  TGI: > 100 µM
ACHN renal
  GI50: 10.1 µM
  TGI: 35.3 µM
MOLT-4 leukemia
  GI50: 2.12 µM
  TGI: 29.6 µM
HOP-62 NSCLC
  GI50: 2.81 µM
  TGI: > 100 µM
NCI/ADR-RES ovarian
  GI50: > 100 µM
  TGI: > 100 µM
TK-10 renal
  GI50: 6.22 µM
  TGI: > 100 µM
UO-31 renal
  GI50: 23.7 µM
  TGI: > 100 µM
RXF 393 renal
  GI50: 3.16 µM
  TGI: 37.2 µM
SF-295 CNS
  GI50: 3.27 µM
  TGI: 13.1 µM
MDA-MB-231 breast
  GI50: 0.642 µM
  TGI: 20.4 µM
SF-539 CNS
  GI50: 2.44 µM
  TGI: > 100 µM
CCRF-CEM leukemia
  GI50: 0.591 µM
  TGI: > 100 µM
LOX IMVI melanoma
  GI50: 1.41 µM
  TGI: > 100 µM
A549 NSCLC
  GI50: 4.63 µM
  TGI: > 100 µM
786-0 renal
  GI50: 4.54 µM
  TGI: > 100 µM
SF-268 CNS
  GI50: 1.33 µM
  TGI: > 100 µM
MALME-3M melanoma
  GI50: 3.23 µM
  TGI: 45.2 µM
NCI-H226 lung
  GI50: 2.3 µM
  TGI: 9.41 µM
SK-MEL-5 melanoma
  GI50: 3.09 µM
  TGI: 11.6 µM
HL-60(TB) leukemia
  GI50: 0.335 µM
  TGI: 3.18 µM
PC-3 prostate
  GI50: 1.01 µM
  TGI: > 100 µM
SK-OV-3 ovarian
  GI50: 2.49 µM
  TGI: 8.45 µM
SNB-19 CNS
  GI50: 0.598 µM
  TGI: > 100 µM
U251 CNS
  GI50: 0.769 µM
  TGI: > 100 µM
SW-620 colon
  GI50: 1.61 µM
  TGI: > 100 µM
UACC-257 melanoma
  GI50: 1.51 µM
  TGI: 8.97 µM
OVCAR-3 ovarian
  GI50: 0.622 µM
  TGI: 23.7 µM
HCT-15 colon
  GI50: 15.3 µM
  TGI: > 100 µM
KM12 colon
  GI50: 4.39 µM
  TGI: > 100 µM
CAKI-1 renal
  GI50: 2.79 µM
  TGI: 34.8 µM
M14 melanoma
  GI50: 2.76 µM
  TGI: 22.4 µM
A498 renal
  GI50: 3.05 µM
  TGI: 69.4 µM
SK-MEL-2 melanoma
  GI50: 0.419 µM
  TGI: 3.59 µM
SR leukemia
  GI50: 1.64 µM
  TGI: 29.1 µM
RPMI-8226 leukemia
  GI50: 0.346 µM
  TGI: 2.36 µM
HCT-116 colon
  GI50: 0.452 µM
  TGI: 14.3 µM
OVCAR-5 ovarian
  GI50: 3.58 µM
  TGI: 26.8 µM
HS 578T breast
  GI50: 0.916 µM
  TGI: > 100 µM
DU-145 prostate
  GI50: 3.48 µM
  TGI: > 100 µM
T-47D breast
  GI50: 0.633 µM
  TGI: > 100 µM
BT-549 breast
  GI50: 0.853 µM
  TGI: 24.8 µM
SK-MEL-28 melanoma
  GI50: 2.3 µM
  TGI: > 100 µM
HOP-92 NSCLC
  GI50: 0.927 µM
  TGI: 7.57 µM
UACC-62 melanoma
  GI50: 1.75 µM
  TGI: 64.7 µM
IGROV1 ovarian
  GI50: 2.67 µM
  TGI: > 100 µM
EKVX NSCLC
  GI50: 3.2 µM
  TGI: > 100 µM
MCF7 breast
  GI50: 0.454 µM
  TGI: 64.7 µM
SNB-75 CNS
  GI50: 0.53 µM
  TGI: 7.46 µM
MDA-MB-435
  GI50: 0.589 µM
  TGI: 62 µM
NCI-H522 lung
  GI50: 0.497 µM
  TGI: 9.3 µM
NCI-H460 lung
  GI50: 2.39 µM
  TGI: > 100 µM
K-562 leukemia
  GI50: 0.482 µM
  TGI: > 100 µM
HCC-2998 colon
  GI50: 1.33 µM
  TGI: 18.7 µM
HT29 colon
  GI50: 2.69 µM
  TGI: 18.6 µM
OVCAR-8 ovarian
  GI50: 2.66 µM
  TGI: > 100 µM

## COc1cc(OC)c(S(N)(=O)=O)cc1C(=O)/C=C/c1ccc(C)cc1
COLO 205 colon
  GI50: 3.33 µM
  TGI: 9.26 µM
SN12C renal
  GI50: 2.95 µM
  TGI: 11.4 µM
OVCAR-4 ovarian
  GI50: 3.66 µM
  TGI: 16.3 µM
ACHN renal
  GI50: 3.86 µM
  TGI: 13.9 µM
MOLT-4 leukemia
  GI50: 3.07 µM
  TGI: 29.6 µM
HOP-62 NSCLC
  GI50: 2.9 µM
  TGI: 7.72 µM
NCI/ADR-RES ovarian
  GI50: 5.25 µM
  TGI: 49.2 µM
TK-10 renal
  GI50: 3.41 µM
  TGI: 12.3 µM
UO-31 renal
  GI50: 3.46 µM
  TGI: 14.5 µM
RXF 393 renal
  GI50: 2.24 µM
  TGI: 6.06 µM
SF-295 CNS
  GI50: 3.89 µM
  TGI: 11.5 µM
MDA-MB-231 breast
  GI50: 3.41 µM
  TGI: 12.5 µM
SF-539 CNS
  GI50: 2.17 µM
  TGI: 5.05 µM
CCRF-CEM leukemia
  GI50: 3.99 µM
  TGI: > 100 µM
LOX IMVI melanoma
  GI50: 0.543 µM
  TGI: 5.01 µM
A549 NSCLC
  GI50: 2.75 µM
  TGI: 10.3 µM
786-0 renal
  GI50: 3.85 µM
  TGI: 22.3 µM
SF-268 CNS
  GI50: 3.2 µM
  TGI: 19.8 µM
MALME-3M melanoma
  GI50: 8.55 µM
  TGI: 23.6 µM
NCI-H226 lung
  GI50: 4.14 µM
  TGI: 19.3 µM
SK-MEL-5 melanoma
  GI50: 7.81 µM
  TGI: 21.1 µM
HL-60(TB) leukemia
  GI50: 2.52 µM
  TGI: 15.8 µM
PC-3 prostate
  GI50: 3.42 µM
  TGI: 14.4 µM
SK-OV-3 ovarian
  GI50: 3.18 µM
  TGI: 9.43 µM
SNB-19 CNS
  GI50: 3.65 µM
  TGI: 15.1 µM
U251 CNS
  GI50: 2.66 µM
  TGI: 10.1 µM
SW-620 colon
  GI50: 3.43 µM
  TGI: 12.6 µM
UACC-257 melanoma
  GI50: 3.86 µM
  TGI: 15.9 µM
OVCAR-3 ovarian
  GI50: 3.05 µM
  TGI: 12.6 µM
HCT-15 colon
  GI50: 2.56 µM
  TGI: 12.9 µM
KM12 colon
  GI50: 3.13 µM
  TGI: 14.5 µM
CAKI-1 renal
  GI50: 2.42 µM
  TGI: 12.4 µM
M14 melanoma
  GI50: 3.25 µM
  TGI: 13 µM
A498 renal
  GI50: 16.2 µM
  TGI: 30.7 µM
SK-MEL-2 melanoma
  GI50: 11.5 µM
  TGI: 25.3 µM
SR leukemia
  GI50: 2.26 µM
  TGI: 12.9 µM
RPMI-8226 leukemia
  GI50: 3.2 µM
  TGI: 24.7 µM
HCT-116 colon
  GI50: 3.06 µM
  TGI: 12.2 µM
OVCAR-5 ovarian
  GI50: 2.57 µM
  TGI: 7.12 µM
HS 578T breast
  GI50: 3.5 µM
  TGI: 35.8 µM
DU-145 prostate
  GI50: 4.23 µM
  TGI: 18.9 µM
T-47D breast
  GI50: 2.32 µM
  TGI: 7.55 µM
BT-549 breast
  GI50: 2.18 µM
  TGI: 6.79 µM
SK-MEL-28 melanoma
  GI50: 4.09 µM
  TGI: 15.3 µM
HOP-92 NSCLC
  GI50: 2.3 µM
  TGI: 7.45 µM
UACC-62 melanoma
  GI50: 3.63 µM
  TGI: 15.2 µM
IGROV1 ovarian
  GI50: 3.56 µM
  TGI: 14.4 µM
EKVX NSCLC
  GI50: 4.33 µM
  TGI: 16.4 µM
MCF7 breast
  GI50: 2.48 µM
  TGI: 12.4 µM
SNB-75 CNS
  GI50: 1.84 µM
  TGI: 5.09 µM
MDA-MB-435
  GI50: 2.27 µM
  TGI: 6.72 µM
NCI-H522 lung
  GI50: 2.48 µM
  TGI: 8.03 µM
NCI-H460 lung
  GI50: 2.24 µM
  TGI: 5.65 µM
K-562 leukemia
  GI50: 2.43 µM
  TGI: > 100 µM
HCC-2998 colon
  GI50: 2.39 µM
  TGI: 5.47 µM
HT29 colon
  GI50: 3.5 µM
  TGI: 10.1 µM
OVCAR-8 ovarian
  GI50: 2.17 µM
  TGI: 5.19 µM
